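Where inhibition never reached the appropriate level, the endpoint shown equals the highest concentration tested. Otherwise, values were interpolated linearly from a five-concentration, 48-hour dose response in 96-well plates. Abbreviation: GI50, concentration required for 50% inhibition of growth. TGI: total growth inhibition.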
How the values were obtained:
Test in all cases: NCI-60 cell line screen, 48 h
786-0 renal = tested on: 786-0 renal
DU-145 prostate = tested on: DU-145 prostate
MCF7 breast = tested on: MCF7 breast
OVCAR-8 ovarian = tested on: OVCAR-8 ovarian
RPMI-8226 leukemia = tested on: RPMI-8226 leukemia
MDA-MB-231 breast = tested on: MDA-MB-231 breast
A549 NSCLC = tested on: A549 NSCLC
U251 CNS = tested on: U251 CNS
CCRF-CEM leukemia = tested on: CCRF-CEM leukemia
MALME-3M melanoma = tested on: MALME-3M melanoma

SMILES | GI50 (786-0 renal) | TGI (786-0 renal) | GI50 (DU-145 prostate) | TGI (DU-145 prostate) | GI50 (MCF7 breast) | TGI (MCF7 breast) | GI50 (OVCAR-8 ovarian) | TGI (OVCAR-8 ovarian) | GI50 (RPMI-8226 leukemia) | TGI (RPMI-8226 leukemia) | GI50 (MDA-MB-231 breast) | TGI (MDA-MB-231 breast) | GI50 (A549 NSCLC) | TGI (A549 NSCLC) | GI50 (U251 CNS) | TGI (U251 CNS) | GI50 (CCRF-CEM leukemia) | TGI (CCRF-CEM leukemia) | GI50 (MALME-3M melanoma) | TGI (MALME-3M melanoma)
CCC/C(=N/N=C(N)N)c1ccc(NC(=O)c2cc3cc(OC)ccc3[nH]2)cc1 | 3.61 µM | 29.2 µM | 3.57 µM | 12 µM | 2.76 µM | 12.2 µM | 12.7 µM | 39.1 µM | 2.13 µM | 5.01 µM | 11.5 µM | 29.4 µM | 13.1 µM | 38.1 µM | 6.35 µM | 25.1 µM | – | – | – | –
CCc1c(C#N)c(S[C@@H](C(N)=O)c2ccccc2)nc(N(C)C)c1C#N | 21.1 µM | > 100 µM | > 100 µM | > 100 µM | – | – | 3.96 µM | > 100 µM | > 100 µM | > 100 µM | 10.8 µM | > 100 µM | – | – | 11 µM | 42.1 µM | > 100 µM | > 100 µM | – | –
CCn1c(CN2CCN(Cc3ccccc3)CC2)nc2cc(NC(=O)c3cccs3)ccc21 | 21.4 µM | 66.1 µM | 32.1 µM | > 100 µM | 19.5 µM | 59.9 µM | 20.1 µM | 55.9 µM | 15.8 µM | 46.1 µM | 16.9 µM | > 100 µM | – | – | 13.6 µM | 32.3 µM | – | – | 18.6 µM | 37.3 µM
BrC1=CC=C2NC=CC3=CC=NC1C32 (centres undefined) | – | > 100 µM | – | – | – | – | – | > 94 µM | – | 37.8 µM | – | – | – | – | – | > 100 µM | – | 28.6 µM | – | 67.1 µM
O=C(CO)CC(=O)C(=O)Nc1ccccc1 | – | > 100 µM | – | – | – | – | – | > 100 µM | – | – | – | – | – | > 100 µM | – | > 100 µM | – | > 100 µM | – | > 100 µM
CCCCCCCCCCCCCC(=O)CC(=O)c1c(O)cccc1O | – | > 100 µM | – | – | – | – | – | > 100 µM | – | 72.4 µM | – | – | – | > 100 µM | – | > 100 µM | – | 41.6 µM | – | 92 µM
N#CC(C(=O)/C(=N/N)C(C#N)c1ccccc1)c1ccccc1 (centres undefined) | – | > 100 µM | – | – | – | – | – | > 100 µM | – | > 100 µM | – | – | – | > 100 µM | – | > 100 µM | – | > 100 µM | – | > 100 µM
Clc1cc(Cc2cc(Cl)c(Cl)c3c2OCOC3)c2c(c1Cl)COCO2 | – | 62.4 µM | – | – | – | – | – | > 100 µM | – | > 100 µM | – | – | – | > 100 µM | – | > 100 µM | – | > 100 µM | – | > 100 µM
CCOc1ccccc1NC(=O)CC1SC(=Nc2ccc([N+](=O)[O-])cc2)NC1=O (centres undefined) | – | 33.5 µM | – | – | – | – | – | 51.4 µM | – | 28.9 µM | – | – | – | 38.9 µM | – | 28 µM | – | 54.3 µM | – | 51.1 µM
CC(=O)[CH-]C(=O)c1ccccc1.CC(=O)[CH-]C(=O)c1ccccc1.[Eu+3].[OH-].[OH3+] | > 100 µM | > 100 µM | – | – | – | – | > 100 µM | > 100 µM | > 100 µM | > 100 µM | – | – | > 100 µM | > 100 µM | > 100 µM | > 100 µM | > 100 µM | > 100 µM | – | –
O=C(CC1(O)C(=O)Nc2c(Cl)ccc(Cl)c21)c1ccc2ccccc2c1 (centres undefined) | – | 22.4 µM | – | – | – | – | – | 38.3 µM | – | 31 µM | – | – | – | 39.6 µM | – | 61.3 µM | – | > 100 µM | – | 25.1 µM
N#Cc1c(NN)nc(NN)c(C#N)c1-c1ccccc1 | – | > 100 µM | – | – | – | – | – | > 100 µM | – | > 100 µM | – | – | – | > 100 µM | – | – | – | > 100 µM | – | > 100 µM
COC1CC2CCC(C)C(O)(O2)C(=O)C(=O)N2CCCCC2C(=O)OC(C(C)CC2CCC(O)C(OC)C2)CC(=O)C(C)C=C(C)C(O)C(OC)C(=O)C(C)CC(C)/C=C/C=C/C=C1C (centres undefined) | 5.48 µM | 17.3 µM | 3.52 µM | 10.9 µM | < 0.005 µM | 14.6 µM | < 0.005 µM | 24.6 µM | 0.0903 µM | 19.3 µM | 4.32 µM | 12.9 µM | 0.0784 µM | 41.6 µM | 0.0523 µM | 10 µM | – | – | < 0.005 µM | 8.36 µM
CN(C)c1ccc([O][Bi]([Cl])[Cl])cc1 | > 100 µM | > 100 µM | – | – | – | – | 53.2 µM | > 100 µM | – | – | – | – | > 100 µM | > 100 µM | > 100 µM | > 100 µM | – | – | > 100 µM | > 100 µM
Oc1cc(O)c2c(-c3c(O)c(-c4ccc(O)c(O)c4)[o+]c4cc(O)cc(O)c34)c(O)c(-c3ccc(O)c(O)c3)[o+]c2c1 | – | > 100 µM | – | – | – | – | – | > 100 µM | – | > 100 µM | – | – | – | > 100 µM | – | > 100 µM | – | – | – | 84.6 µM
Cn1c(=O)nc2n(-c3cccc(Br)c3)c3ccccc3nc-2c1=O | – | 16.7 µM | – | – | – | – | – | 25.4 µM | – | 37.7 µM | – | – | – | 14.5 µM | – | 19.2 µM | – | 26.9 µM | – | 6.46 µM
O=c1cc2ccccc2nn1Cc1cccc(Cl)c1 | – | > 100 µM | – | – | – | – | – | > 100 µM | – | > 100 µM | – | – | – | > 100 µM | – | > 100 µM | – | > 100 µM | – | > 100 µM
O=C1NC(=O)C2C(=O)NC(=O)C1C2(c1ccccc1)c1cc[nH]c1 (centres undefined) | – | > 100 µM | – | – | – | – | – | > 100 µM | – | > 100 µM | – | – | – | > 100 µM | – | – | – | > 100 µM | – | > 100 µM
N/C(=C\c1ccc(OCc2ccccc2)c(OCc2ccccc2)c1[N+](=O)[O-])C(=O)O | – | > 100 µM | – | – | – | – | – | > 100 µM | – | > 100 µM | – | – | – | > 100 µM | – | > 100 µM | – | > 100 µM | – | > 100 µM
Cc1ccccc1C(=O)c1ccccc1O | – | > 100 µM | – | – | – | – | – | > 100 µM | – | – | – | – | – | > 100 µM | – | > 100 µM | – | > 100 µM | – | > 100 µM
CC(=O)[CH-]C(=O)c1ccccc1.CC(=O)[CH-]C(=O)c1ccccc1.CC(C)CCCC(C)[C@H]1CCC2[C@@H]3CC=C4C[C@@H]([O-])CC[C@]4(C)C3CC[C@@]21C.CC[O-].[Ti+4] (some centres undefined) | 35.2 µM | > 100 µM | – | – | – | – | 46.3 µM | > 100 µM | 18.5 µM | 52.2 µM | – | – | > 100 µM | > 100 µM | 48.7 µM | > 100 µM | 35.5 µM | > 100 µM | 29.4 µM | 75.6 µM
N#C/C(=C/c1ccc[nH]1)P(=O)(O)O | – | > 100 µM | – | – | – | – | – | > 100 µM | – | > 100 µM | – | – | – | > 100 µM | – | > 100 µM | – | > 100 µM | – | > 100 µM
